Patent US7235256B2, “Method of preventing parturient hypocalcemia in animals and compositions used therein” (RJ Innovation, priority 1999, dated 2007)

Columns and labels:
[1] = test system: non-lactating (dry) cows; assay: EDTA-infusion test for resistance to hypocalcemia; assay type: in vivo, cow; conditions: 8 EDTA-tests at 10 days intervals, normal = ionised blood calcium above 1 mmol/l
Description: To investigate the induction of hypocalcemia by intravenous infusion of EDTA in cows, 6 non-lactating (dry) cows were used in this study. Three of these cows were untreated (cow Nos. 168, 169 and 170) and the other three cows (cow Nos. 172, 175 and 176) had been subjected to a pre-treatment consisting of daily doses of anionic salts (Wang and Beede, 1992). This pre-treatment is known to be effective in preventing milk fever. The latter cows were rumen fistulated to facilitate precise daily dosages of the anionic salts.
All cows were tested for resistance to hypocalcemia by the EDTA-infusion technique. A total of 8 EDTA-tests were performed per cow according to the standardised method of Mellau et al. (1998), at 10 days intervals. With the standardised test, infusion of EDTA was performed until the cow went down involuntarily, due to muscle weakness caused by the induced hypocalcemia. The time taken from this point and until the cow regained normal blood calcium concentration, which is defined as an ionised blood calcium value above 1 mmol/l, was recorded. This time is considered to represent the cows' calcium mobilisation rate and therefore also the cows' ability to resist hypocalcemia. The infusion periods varied between individual cows, but were typically in the range of 2–4 hours. […]

[2] = test system: dairy cows; assay: Repeated oral zinc oxide administration, serum calcium response; assay type: in vivo, cow; conditions: lactating cows
Experimental: Six dairy cows were used in this study: Two lactating cows and two dry cows were treated with zinc oxide by mouth at 120 mg/kg body weight, whereas two lactating cows served as untreated controls. Four doses of zinc oxide were given to the treated cows at one-week intervals. Venous blood samples were taken and serum stored at −37° C. for later total calcium determinations. For this purpose blood samples were taken daily from all six cows one hour after morning feeding. Extra samples were taken 5, 11, 23 and 35 hours after zinc oxide administration.

[3] = zinc oxide by mouth 120 mg/kg body weight

Row | Compound | time to regain normal blood calcium concentration (recovery time) after EDTA infusion [1] | change of calcium balance response with number of doses ([2]; four doses at one-week intervals) | minimum serum calcium concentration [2, 3] [mmol/L] | time of minimum serum calcium after administration [2, 3]
1 | O=C(O)CN(CCN(CC(=O)O)CC(=O)O)CC(=O)O [EDTA, ethylenediaminetetraacetic acid] | greatly improved | – | – | –
2 | [O]=[Zn] [zinc oxide] | – | less and less affected | 1.4 to 1.6 | about 24 hours
